Reference: US6573076B1, “Gene, group of genes, and novel β-glucosidase” (Ajinomoto Co., Inc., priority 1997, dated 2003)
Read-outs that look alike come from different tables or passages of the source. Values belong to the compound of their own block, whether it stands above or below them.

Assays:
Format in all cases: biochemical, Acetobacter xylinum subsp. sucrofermentans BPR 2001
β-glucosidase (G3ase) [1] = molecular target: T1, β-glucosidase (G3ase) (Komagataeibacter sucrofermentans, UniProt O24749); assay: Inhibition constants of G3ase inhibitors
T1 sequence (O24749 entry or part of it): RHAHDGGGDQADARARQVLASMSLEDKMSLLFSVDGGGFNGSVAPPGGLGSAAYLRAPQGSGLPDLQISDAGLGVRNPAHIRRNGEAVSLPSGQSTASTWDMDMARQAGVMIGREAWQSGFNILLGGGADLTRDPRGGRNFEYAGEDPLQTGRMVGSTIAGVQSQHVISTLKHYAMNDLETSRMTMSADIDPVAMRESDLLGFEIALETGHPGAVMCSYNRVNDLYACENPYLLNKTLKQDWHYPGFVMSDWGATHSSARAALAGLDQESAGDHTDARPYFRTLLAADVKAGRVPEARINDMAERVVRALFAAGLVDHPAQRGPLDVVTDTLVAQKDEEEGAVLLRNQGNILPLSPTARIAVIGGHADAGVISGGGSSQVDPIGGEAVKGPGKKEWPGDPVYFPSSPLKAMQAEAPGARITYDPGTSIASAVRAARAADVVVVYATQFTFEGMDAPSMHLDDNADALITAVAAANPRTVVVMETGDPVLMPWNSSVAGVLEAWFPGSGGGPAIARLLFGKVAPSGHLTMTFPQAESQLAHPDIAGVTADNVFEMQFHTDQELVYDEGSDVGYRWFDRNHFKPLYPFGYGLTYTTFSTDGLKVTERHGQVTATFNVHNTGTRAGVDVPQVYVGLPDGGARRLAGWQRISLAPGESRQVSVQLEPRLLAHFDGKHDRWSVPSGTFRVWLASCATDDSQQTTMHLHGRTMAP

β-glucosidase (G3ase) [2] = molecular target: T1, β-glucosidase (G3ase); assay: Effect of metal ions and chemical agents on β-glucosidase (G3ase) activity; settings: for activity at 1000 µM: read-out: Relative activity (%)
Protocol: After reaction at 30° C. for 2 hr, a reaction solution (300 μl) of a glucose-measuring kit (Glucose CII test Wako: Wako Pure Chemical Industries, Ltd.) was added to the mixture, and reacted for 15 min at a room temperature, followed by the determination of an amount of glucose based on absorbance at 505 nm.

β-glucosidase (G3ase) [3] = molecular target: T1, β-glucosidase (G3ase); assay: Reactivity of G3ase with cellulosic substrates (glucose produced)
[4] = compound 1 mM, non-added sample = 100%
[5] = metal ions and chemical agents 1 mM

Ki (β-glucosidase (G3ase) [1]): 700 µM
Type of inhibition (β-glucosidase (G3ase) [1]): Competitive
Type of inhibition (β-glucosidase (G3ase) [1]; listed as conduritol-β epoxide): competitively inhibited
Structure (SMILES): O[C@H]1[C@H](O)[C@@H](O)[C@@H]2O[C@@H]2[C@@H]1O (relative stereo) [Conduritol-βepoxide]

Relative activity (%) (β-glucosidase (G3ase) [2]; [4]): 106%
Structure (SMILES): OCCS [2ME, 2-mercaptoethanol]
Effect on β-glucosidase (G3ase) activity (in words) (β-glucosidase (G3ase) [2]; [5]): did not affect it adversely

Structure (SMILES): [Ca+2].[Cl-].[Cl-] [CaCl2]
Relative activity (%) (β-glucosidase (G3ase) [2]; [4]): 100%

Structure (SMILES): O=S(=O)([O-])[O-].[Cu+2] [CuSO4]
Relative activity (%) (β-glucosidase (G3ase) [2]; [4]): 115.7%

Structure (SMILES): O=C(O)CN(CCN(CC(=O)O)CC(=O)O)CC(=O)O [EDTA, ethylene diamine tetra acetate]
Effect on β-glucosidase (G3ase) activity (in words) (β-glucosidase (G3ase) [2]): did not affect it adversely
Relative activity (%) (β-glucosidase (G3ase) [2]): 100%

Structure (SMILES): O=S(=O)([O-])[O-].[Fe+2] [FeSO4]
Relative activity (%) (β-glucosidase (G3ase) [2]; [4]): 91.6%

percent ratio of produced glucose against total substrate added (β-glucosidase (G3ase) [3]; reaction time 2 hr): 13.1%
percent ratio of produced glucose against total substrate added (β-glucosidase (G3ase) [3]; reaction time 24 hr): 17.5%
Structure (SMILES): OC[C@H]1O[C@@H](O[C@H]2[C@H](O)[C@@H](O)[C@H](O[C@H]3[C@H](O)[C@@H](O)C(O)O[C@@H]3CO)O[C@@H]2CO)[C@H](O)[C@@H](O)[C@@H]1O (some centres unmarked) [G3, cellotriose]

Structure (SMILES): OC[C@H]1O[C@@H](O[C@H]2[C@H](O)[C@@H](O)[C@H](O[C@H]3[C@H](O)[C@@H](O)[C@H](O[C@H]4[C@H](O)[C@@H](O)[C@H](O[C@H]5[C@H](O)[C@@H](O)[C@H](O[C@H]6[C@H](O)[C@@H](O)C(O)O[C@@H]6CO)O[C@@H]5CO)O[C@@H]4CO)O[C@@H]3CO)O[C@@H]2CO)[C@H](O)[C@@H](O)[C@@H]1O (some centres unmarked) [G6, cellohexaose]
percent ratio of produced glucose against total substrate added (β-glucosidase (G3ase) [3]; reaction time 2 hr): 24.3%
percent ratio of produced glucose against total substrate added (β-glucosidase (G3ase) [3]; reaction time 24 hr): 28.2%

Ki (β-glucosidase (G3ase) [1]): 760 µM
Type of inhibition (β-glucosidase (G3ase) [1]): Competitive
Type of inhibition (β-glucosidase (G3ase) [1]; listed as glucon-o-δ-lactone): competitively inhibited
Structure (SMILES): O=C1O[C@H](CO)[C@@H](O)[C@H](O)[C@H]1O [Glucono-δ-lactone]

Structure (SMILES): [Cl][Hg][Cl] [HgCl2]
Relative activity (%) (β-glucosidase (G3ase) [2]; [4]): 85.5%

Structure (SMILES): O=C(O)CI [IAA, iodo acetate]
Relative activity (%) (β-glucosidase (G3ase) [2]; [4]): 126.5%
Effect on β-glucosidase (G3ase) activity (in words) (β-glucosidase (G3ase) [2]; [5]): did not affect it adversely

Structure (SMILES): O=S(=O)([O-])[O-].[Mg+2] [MgSO4]
Relative activity (%) (β-glucosidase (G3ase) [2]; [4]): 95.2%

Structure (SMILES): O=S(=O)([O-])[O-].[Mn+2] [MnSO4]
Relative activity (%) (β-glucosidase (G3ase) [2]; [4]): 114.5%

activity at 1000 µM (β-glucosidase (G3ase) [2]; [4]): 0%
Effect on β-glucosidase (G3ase) activity (in words) (β-glucosidase (G3ase) [2]; [5]): completely inactivated
Structure (SMILES): O=C1CCC(=O)N1Br [NBS, N-bromosuccinimide]

Structure (SMILES): CCCCCCCCCCCCOS(=O)(=O)[O-].[Na+] [SDS, sodium dodecyl sulfate]
activity at 1000 µM (β-glucosidase (G3ase) [2]; [4]): 31.3%

Structure (SMILES): O=S(=O)([O-])[O-].[Zn+2] [ZnSO4]
Relative activity (%) (β-glucosidase (G3ase) [2]; [4]): 90.4%
